# Experimental data published in patent US20250186411A1, “Methods of Treating Disorders Associated with Overactivation of IKKB” (The United States Government as represented by the …, priority 2023, published 2025).
# Tested on: FVB/n mice
# Assay: Nephrotoxic Serum Nephritis (NTS) model
# Format: in vivo, mouse
# Experimental: In the Nephrotoxic Serum Nephritis (NTS) model, 8-week-old FVB/n mice were initially sensitized with an intraperitoneal injection of 0.5 mg of sheep IgG (IP, Jackson ImmunoResearch) with complete Freund's adjuvant (IP, Millipore Sigma). Five days later, mice were administered 100 μl of NTS (IP, ProbeTex), as previously described (Estrada et al. (2018) JCI Insight 3). […] Urine was collected and mice were euthanized at day 7 or day 14 post-NTS treatment.
# Urine albumin was quantified by ELISA using a kit from Bethyl Laboratory Inc. Urine creatinine levels were measured in the same samples using the Creatinine Colorimetric Assay Kit (500701; Cayman Chemical) as per manufacturer's protocol.
# Briefly formalin-fixed and paraffin embedded sections were deparaffinized, and endogenous peroxidase was inactivated with H2O2. All kidney sections from these mice were prepared in identical fashion. Immunofluorescence was performed using rabbit anti-KLF15, mouse anti-WT1 (Santa Cruz, SC-7385), rabbit anti-Synaptopodin (Sigma, SAB3500585), rabbit anti-p65 (Cell Signaling Tech, 8242S) antibodies. After washing, sections were incubated with the appropriate fluorophore-linked secondary antibody (Alexa Fluor 647 Donkey anti-mouse, Alexa Fluor 568 Donkey anti-rabbit antibodies, Life Technologies). After counter staining with Hoechst (Thermo Fisher Scientific), slides were mounted in Prolong Gold mounting media (Thermo Fisher Scientific) and photographed under a Nikon Eclipse Ni-E Fully Motorized Microscope System with a DS-Qi2 digital camera.
# Quantification of KLF15 staining in the podocytes was determined by quantifying the intensity of KLF15 staining (optical density) in WT1+Hoechst staining using ImageJ 1.53c software (National Institute of Health, http://imagej.nih.gov/ij).
# Mice were perfused with PBS, and the kidneys were fixed in 10% phosphate buffered formalin overnight and switched to 70% ethanol before processing for histology. Kidney tissue was embedded in paraffin by Stony Brook Medicine Research Histology Core Laboratory (RHCL)—Department of Pathology and 4-μm-thick sections were stained with periodic acid-Schiff (PAS), hematoxylin & eosin (H&E), and masson's trichrome (Sigma-Aldrich). Quantification of % FSGS was determined by renal pathology in a blinded fashion (Huntsman Cancer Institute-University of Utah Health).
smiles,measurement,setting,value
CSc1ccc(NC(=O)Nc2ccc(C)nc2)cc1 [BT503],albuminuria,"day 7 and 14 post-NTS treatment, vs DMSO",significantly less albuminuria
same,p65 expression in the glomeruli,post-NTS treatment,attenuated
same,"glomerular injury (% of glomeruli with FSGS, extracapillary proliferation) and proteinaceous casts",vs DMSO,significantly reduced
same,glomerular synaptopodin expression,vs DMSO,restored
same,interstitial fibrosis (masson's trichrome and α-SMA staining),vs DMSO,less interstitial fibrosis
same,podocyte number (WT1+ podocytes per glomerular cross-sectional area),vs DMSO,restored the podocyte number
